# Experimental data reported in article PMC7280082 (Acta Pharmaceutica Sinica. B, 2019).
# Experiments:
# [1] = test system: HIV-1 Y188L mutant strain; test: microbe, parasite or virus in culture; assay type: cell-based
# [2] = test system: HIV-1 Y181C mutant strain; test: microbe, parasite or virus in culture; assay type: cell-based
# [3] = molecular target: WT HIV-1 RT (Human immunodeficiency virus type 1 group M subtype B, UniProt P03366); test: Recombinant HIV-1 RT inhibitory assay; assay type: biochemical
# [4] = In vivo pharmacokinetics in Wistar rat; conditions: plasma
# [5] = test system: WT HIV-1 (IIIB); test: microbe, parasite or virus in culture; assay type: cell-based
# [6] = Cytotoxicity in mock-infected MT-4 cell cultures, MTT method; conditions: human, mock-infected MT-4 cells
# [7] = test system: Kunming mice; test: Acute toxicity experiment in Kunming mice; assay type: in vivo; conditions: single oral dose of 2000 mg/kg
# [8] = test system: HIV-1 E138K mutant strain; test: microbe, parasite or virus in culture; assay type: cell-based
# [9] = test system: HIV-2 strain (ROD); test: Anti-HIV-2; assay type: cell-based
# [10] = test system: HIV-1 RES056 (K103N + Y181C) double-mutant strain; test: microbe, parasite or virus in culture; assay type: cell-based
# [11] = test system: HIV-1 L100I mutant strain; test: microbe, parasite or virus in culture; assay type: cell-based
# [12] = test system: HIV-1 K103N mutant strain; test: microbe, parasite or virus in culture; assay type: cell-based
# [13] = test system: HIV-1 F227L + V106A double-mutant strain; test: microbe, parasite or virus in culture; assay type: cell-based
# [14] = ratio of EC50 (resistant viral strain)/EC50 (wild-type viral strain)
structure (smiles),measurement,setting,value
"Cc1cc(-c2ccc(C#N)cc2)cc(C)c1Oc1nc(NC2CCN(Cc3ccc(C(N)=O)cc3)CC2)nc2ccsc12 [Compound 26, 4-((4-((4-((4′-Cyano-3,5-dimethyl-[1,1′-biphenyl]-4-yl)oxy)thieno[3,2-d]pyrimidin-2-yl)amino)piperidin-1-yl)methyl)benzamide]",SI Y188L,[1]; CC50/EC50,229
same,EC50,"[1]; Human immunodeficiency virus 1, MT4, read-out: EC50 Y188L",23.9 ± 2.4 nM
same,RF Y188L,[1]; [14],2.4
same,SI Y181C,[2]; CC50/EC50,290
same,EC50,"[2]; Human immunodeficiency virus 1, MT4, read-out: EC50 Y181C",18.9 ± 2.28 nM
same,RF Y181C,[2]; [14],1.9
same,IC50,[3],182 ± 16 nM
same,AUC(0-inf),"[4]; iv, 2 mg/kg",1340 ± 53.9 ng·h/mL
same,AUC(0-t),"[4]; iv, 2 mg/kg",1290 ± 62.7 ng·h/mL
same,Cmax,"[4]; iv, 2 mg/kg",941 ± 181 ng/mL
same,clearance,"[4]; iv, 2 mg/kg",25 ± 1.04 mL/min/kg
same,half-life,"[4]; iv, 2 mg/kg",1.71 ± 0.24 h
same,bioavailability,"[4]; oral, 20 mg/kg",33.8%
same,AUC(0-inf),"[4]; po, 20 mg/kg",4760 ± 1350 ng·h/mL
same,AUC(0-t),"[4]; po, 20 mg/kg",4360 ± 1570 ng·h/mL
same,Cmax,"[4]; po, 20 mg/kg",762 ± 296 ng/mL
same,Tmax,"[4]; po, 20 mg/kg",2 ± 0.32 h
same,half-life,"[4]; po, 20 mg/kg",2.68 ± 0.2 h
same,EC50,"[5]; Human immunodeficiency virus 1, IIIB, MT4, read-out: EC50 IIIB",9.93 ± 1.27 nM
same,SI IIIB,[5]; ratio of CC50/EC50,552
same,CC50 at 5 days,[6],5480 ± 2120 nM
same,mortality or poisoning symptom,[7],no mortality or poisoning symptom
same,SI E138K,[8]; CC50/EC50,236
same,EC50,"[8]; Human immunodeficiency virus 1, MT4, read-out: EC50 E138K",23.2 ± 8.64 nM
same,RF E138K,[8]; [14],2.3
same,EC50,"[9]; Human immunodeficiency virus 2, MT4, read-out: EC50 ROD",> 5490 nM
same,SI ROD,[9]; ratio of CC50/EC50,<1
same,SI RES056,[10]; CC50/EC50,44
same,EC50,"[10]; Human immunodeficiency virus 1, MT4, read-out: EC50 RES056",125 ± 39.3 nM
same,RF RES056,[10]; [14],12.6
same,SI L100I,[11]; CC50/EC50,521
same,EC50,"[11]; Human immunodeficiency virus 1, MT4, read-out: EC50 L100I",10.5 ± 4.56 nM
same,RF L100I,[11]; [14],1.1
same,SI K103N,[12]; CC50/EC50,910
same,EC50,"[12]; Human immunodeficiency virus 1, MT4, read-out: EC50 K103N",6.02 ± 0.84 nM
same,SI F227L + V106A,[13]; CC50/EC50,56
same,EC50,"[13]; Human immunodeficiency virus 1, MT4, read-out: EC50 F227L + V106A",97.2 ± 25.3 nM
same,RF F227L + V106A,[13]; [14],9.8
